Consider 18 compounds from US8343983B2, “Substituted pyrazolo-pyrimidine compounds” (ArQule, Inc., priority 2009, dated 2013).

Where two headings read alike, the source gives them in different places.

The subject of this experiment is cancer cells. Nature of the experiment: MTS assay: inhibition of cell growth (formazan absorbance at 492 nm after 72 hours with test compound). The class given is cell-based. The settings on record: inhibition class. As for the experimental part: Cells were maintained at 37° C., 5% CO2 in DMEM media supplemented with 1% fetal bovine serum, penicillin/streptomycin and fungizone (Invitrogen). Cells were seeded into 96-well tissue culture plates at 3000 per well and cultured at 37° C. for 18 hours. Test compounds were dissolved and diluted to 300× in DMSO then diluted 1:40 in DMEM. Cells were incubated with test compounds for 72 hours followed by incubation with tetrazolium compound (3-(4,5-dimethylthiazol-2-yl)-5-(3-carboxymethoxyphenyl)-2-(4-sulfophenyl)-2H-tetrazolium, inner salt; MTS) and the electron coupling reagent, phenazine methosulfate (PMS) for 4 hours. […] The ability of compounds to inhibit cell growth in this assay is correlated with the reduction of dehydrogenase enzyme activity found in metabolically active cells. The measurement of the absorbance of the formazan was assessed using an ENVISION™ (Perkin Elmer) microplate reader at 492 nm. The calculated IC50 value is the concentration of the test compound that causes a 50% decrease in the absorbance. […] A=>79% inhibition, B=>50 to 79% inhibition, C=<50% inhibition.
Background: Formazan colour is commonly taken as a measure of viable cells.

[1] abbreviates: Homo sapiens, DLD-1 cells, read-out: DLD-1, MTS 72 hours at 10 uM.
The mark [2] stands for this setting: Homo sapiens, KATO III cells, read-out: KATO III, MTS 72 hours at 10 uM.
Setting [3] is: Homo sapiens, MDA-MB-231 cells, read-out: MDA-MB-231, MTS 72 hours at 10 uM.
The mark [4] stands for this setting: Homo sapiens, NCI-H1299 cells, read-out: NCI-H1299, MTS 72 hours at 10 uM.
Setting [5] is: Homo sapiens, PC-3 cells, read-out: PC-3, MTS 72 hours at 10 uM.
[6] abbreviates: PACA-2 cells, read-out: PACA-2, MTS 72 hours at 10 uM.

For the compound `CSc1nc2c3c(n[nH]c3n1)CCN2Cc1ccccc1` [Compound 1, 6-benzyl-4-(methylthio)-2,6,7,8-tetrahydro-1,2,3,5,6-pentaazaacenaphthylene], the inhibition at 10 µM under setting [1] was less than 50%; the inhibition at 10 µM under setting [2] is less than 50%; the inhibition at 10 µM under setting [3] is less than 50%; the inhibition at 10 µM under setting [4] is less than 50%; the inhibition at 10 µM under setting [5] was less than 50%; the inhibition at 10 µM under setting [6] is less than 50%.

For the compound `CS(=O)(=O)c1nc2c3c(n[nH]c3n1)CCN2Cc1ccccc1` [Compound 2, 6-benzyl-4-(methylsulfonyl)-2,6,7,8-tetrahydro-1,2,3,5,6-pentaazaacenaphthylene], the inhibition at 10 µM is less than 50% under setting [1]; less than 50% under setting [2]; less than 50% under setting [3]; less than 50% under setting [4]; less than 50% under setting [5]; less than 50% under setting [6].

With `FC(F)(F)c1ccnc(N2CCN(c3nc4c5c(n[nH]c5n3)CCN4Cc3ccccc3)CC2)n1` [Compound 4, 6-benzyl-4-{4-[4-(trifluoromethyl)pyrimidin-2-yl]piperazin-1-yl}-2,6,7,8-tetrahydro-1,2,3,5,6-pentaazaacenaphthylene], the inhibition at 10 µM is, setting by setting: under setting [1], 50 to 79%; under setting [2], less than 50%; under setting [3], more than 79%; under setting [4], more than 79%; under setting [5], more than 79%; under setting [6], less than 50%.

For `Fc1ccccc1CN1CCN(c2nc3c4c(n[nH]c4n2)CCN3Cc2ccccc2)CC1` [Compound 5, 6-benzyl-4-[4-(2-fluorobenzyl)piperazin-1-yl]-2,6,7,8-tetrahydro-1,2,3,5,6-pentaazaacenaphthylene], the inhibition at 10 µM was less than 50% under setting [1]; 50 to 79% under setting [2]; more than 79% under setting [3]; less than 50% under setting [4]; more than 79% under setting [5]; less than 50% under setting [6].

`CN(Cc1cccc2ccccc12)c1nc2c3c(n[nH]c3n1)CCN2Cc1ccccc1` [Compound 6, 6-benzyl-N-methyl-N-(1-naphthylmethyl)-2,6,7,8-tetrahydro-1,2,3,5,6-pentaazaacenaphthylen-4-amine]: the inhibition at 10 µM was less than 50% under setting [1]; less than 50% under setting [2]; less than 50% under setting [3]; less than 50% under setting [4]; less than 50% under setting [5]; less than 50% under setting [6].

Regarding `c1ccc(CN2CCc3n[nH]c4nc(NCc5cccc6ccccc56)nc2c34)cc1` [Compound 7, 6-benzyl-N-(1-naphthylmethyl)-2,6,7,8-tetrahydro-1,2,3,5,6-pentaazaacenaphthylen-4-amine], the inhibition at 10 µM under setting [1] was less than 50%; the inhibition at 10 µM under setting [2] was more than 79%; the inhibition at 10 µM under setting [3] is more than 79%; the inhibition at 10 µM under setting [4] is less than 50%; the inhibition at 10 µM under setting [5] was more than 79%; the inhibition at 10 µM under setting [6] is less than 50%.

As to `N#Cc1cccnc1N1CCN(c2nc3c4c(n[nH]c4n2)CCN3Cc2ccccc2)CC1` [Compound 8, 2-[4-(6-benzyl-2,6,7,8-tetrahydro-1,2,3,5,6-pentaazaacenaphthylen-4-yl)piperazin-1-yl]nicotinonitrile], the inhibition at 10 µM by setting is: under setting [1], less than 50%; under setting [2], less than 50%; under setting [3], less than 50%; under setting [4], less than 50%; under setting [5], less than 50%; under setting [6], less than 50%.

With `COc1cccc(N2CCN(c3nc4c5c(n[nH]c5n3)CCN4Cc3ccccc3)CC2)c1` [Compound 9, 6-benzyl-4-[4-(3-methoxyphenyl)piperazin-1-yl]-2,6,7,8-tetrahydro-1,2,3,5,6-pentaazaacenaphthylene], the inhibition at 10 µM reads like this: under setting [1], less than 50%; under setting [2], less than 50%; under setting [3], more than 79%; under setting [4], less than 50%; under setting [5], more than 79%; under setting [6], less than 50%.

For the compound `c1ccc(CN2CCc3n[nH]c4nc(NCc5cccnc5)nc2c34)cc1` [Compound 10, 6-benzyl-N-(pyridin-3-ylmethyl)-2,6,7,8-tetrahydro-1,2,3,5,6-pentaazaacenaphthylen-4-amine], the inhibition at 10 µM is less than 50% under setting [1]; less than 50% under setting [2]; less than 50% under setting [3]; less than 50% under setting [4]; less than 50% under setting [5]; less than 50% under setting [6].

As for `COc1cc(CCNc2nc3c4c(n[nH]c4n2)CCN3Cc2ccccc2)cc(OC)c1` [Compound 11, 6-benzyl-N-[2-(3,5-dimethoxyphenyl)ethyl]-2,6,7,8-tetrahydro-1,2,3,5,6-pentaazaacenaphthylen-4-amine], the inhibition at 10 µM runs as follows: under setting [1], 50 to 79%; under setting [2], more than 79%; under setting [3], less than 50%; under setting [4], more than 79%; under setting [5], less than 50%; under setting [6], 50 to 79%.

On to `Clc1cccc(CCNc2nc3c4c(n[nH]c4n2)CCN3Cc2ccccc2)c1` [Compound 12, 6-benzyl-N-[2-(3-chlorophenyl)ethyl]-2,6,7,8-tetrahydro-1,2,3,5,6-pentaazaacenaphthylen-4-amine], for which the inhibition at 10 µM was 50 to 79% under setting [1]; 50 to 79% under setting [2]; less than 50% under setting [3]; 50 to 79% under setting [4]; less than 50% under setting [5]; less than 50% under setting [6].

On to `c1ccc(CN2CCc3n[nH]c4nc(N5CCN(c6ncccn6)CC5)nc2c34)cc1` [Compound 13, 6-benzyl-4-(4-pyrimidin-2-ylpiperazin-1-yl)-2,6,7,8-tetrahydro-1,2,3,5,6-pentaazaacenaphthylene], for which the inhibition at 10 µM under setting [1] was less than 50%; the inhibition at 10 µM under setting [2] was less than 50%; the inhibition at 10 µM under setting [3] is less than 50%; the inhibition at 10 µM under setting [4] was less than 50%; the inhibition at 10 µM under setting [5] is less than 50%; the inhibition at 10 µM under setting [6] is less than 50%.

For `COc1ccc(CCN(C)c2nc3c4c(n[nH]c4n2)CCN3Cc2ccccc2)cc1OC` [Compound 14, 6-benzyl-N-[2-(3,4-dimethoxyphenyl)ethyl]-N-methyl-2,6,7,8-tetrahydro-1,2,3,5,6-pentaazaacenaphthylen-4-amine], the inhibition at 10 µM under setting [1] is less than 50%; the inhibition at 10 µM under setting [2] was less than 50%; the inhibition at 10 µM under setting [3] was less than 50%; the inhibition at 10 µM under setting [4] is less than 50%; the inhibition at 10 µM under setting [5] is less than 50%; the inhibition at 10 µM under setting [6] is less than 50%.

In the case of `c1ccc(CN2CCc3n[nH]c4nc(N5CCN(Cc6ccc7c(c6)OCO7)CC5)nc2c34)cc1` [Compound 15, 4-[4-(1,3-benzodioxol-5-ylmethyl)piperazin-1-yl]-6-benzyl-2,6,7,8-tetrahydro-1,2,3,5,6-pentaazaacenaphthylene], the inhibition at 10 µM is, setting by setting: under setting [1], less than 50%; under setting [2], less than 50%; under setting [3], less than 50%; under setting [4], less than 50%; under setting [5], less than 50%; under setting [6], less than 50%.

Regarding `Clc1cccc(Oc2ccccc2)c1CNc1nc2c3c(n[nH]c3n1)CCN2Cc1ccccc1` [Compound 16, 6-benzyl-N-(2-chloro-6-phenoxybenzyl)-2,6,7,8-tetrahydro-1,2,3,5,6-pentaazaacenaphthylen-4-amine], the inhibition at 10 µM is less than 50% under setting [1]; less than 50% under setting [2]; less than 50% under setting [3]; 50 to 79% under setting [4]; 50 to 79% under setting [5]; less than 50% under setting [6].

`c1ccc(CN2CCc3n[nH]c4nc(NC5Cc6ccccc6C5)nc2c34)cc1` [Compound 17, 6-benzyl-N-(2,3-dihydro-1H-inden-2-yl)-2,6,7,8-tetrahydro-1,2,3,5,6-pentaazaacenaphthylen-4-amine]: the inhibition at 10 µM reads like this: under setting [1], 50 to 79%; under setting [2], 50 to 79%; under setting [3], less than 50%; under setting [4], 50 to 79%; under setting [5], less than 50%; under setting [6], 50 to 79%.

With `COC[C@H](C)Nc1nc2c3c(n[nH]c3n1)CCN2Cc1ccccc1` [Compound 18, 6-benzyl-N-[(1S)-2-methoxy-1-methylethyl]-2,6,7,8-tetrahydro-1,2,3,5,6-pentaazaacenaphthylen-4-amine], the inhibition at 10 µM is less than 50% under setting [1]; less than 50% under setting [2]; less than 50% under setting [3]; less than 50% under setting [4]; less than 50% under setting [5]; less than 50% under setting [6].

For `c1ccc(CN2CCc3n[nH]c4nc(N5CCc6ccccc6C5)nc2c34)cc1` [Compound 19, 6-benzyl-4-(3,4-dihydroisoquinolin-2(1H)-yl)-2,6,7,8-tetrahydro-1,2,3,5,6-pentaazaacenaphthylene], the inhibition at 10 µM is, setting by setting: under setting [1], less than 50%; under setting [2], less than 50%; under setting [3], 50 to 79%; under setting [4], less than 50%; under setting [5], 50 to 79%; under setting [6], less than 50%.
